Here are results for one compound from paper PMC2709226 (Plant Molecular Biology, 2008).

For experiment [1], the target named is acINV (Allium cepa, UniProt O81083). Put plainly: biochemical.
Experiment [2] concerns the target acINV (Allium cepa, UniProt O81083, W440Y). Put plainly: biochemical.

For the compound `OC[C@H]1O[C@@](CO)(O[C@H]2O[C@H](CO)[C@@H](O)[C@H](O)[C@H]2O)[C@@H](O)[C@@H]1O` [sucrose], the Km – broadly, the substrate concentration at which the rate is half of its maximum – was determined as 5.8 ± 1.9 mM in experiment [1] and 8.8 ± 2.4 mM in experiment [2].
